Experimental data: article PMC3433420 (PLoS ONE, 2012)
Residues, ends and D or L forms follow the SMILES beside them.

Tests used:
PTK6 SH2 domain = target: T1, PTK6 SH2 domain (Homo sapiens, UniProt Q13882); test: FP saturation binding assay; settings: protein PTK6; FP, high-confidence ErbB interactions; mean of replicate hits
T1 construct: from the PTK6 SH2 domain; 6X His; thioredoxin; made in house; host or cells: E. coli BL21(DE3)pLysS
Experimental: (See Figure 1A) Rhodamine-labeled peptides were dissolved in assay buffer (20 mM HEPES, 100 mM KCl, 0.1% Tween-20, 5 mM DTT, pH 7.8), diluted to a concentration of 20 nM, and plated into black 384-well plates (Corning, Corning, NY) at 5 µL/well using a Perkin Elmer EP3 pipetting workstation (V&P Scientific, Inc., San Diego, CA). SH2, PTB, and thioredoxin control proteins were plated into the first column of 2 mL 96-well plates (Corning) at a concentration of 20 µM and serially diluted 1∶2 into freezing buffer (300 mM NaCl, 50 mM Na2PO4, pH 8, 20% glycerol v/v) eleven times using a Tecan Freedom EVO 100 workstation (Tecan, Männedorf, Switzerland). For the interaction assay, 5 µL of each of the twelve protein concentrations was added to the peptide-containing 384-well plates via the EP3 resulting in a protein dilution range of 0.002–10 µM and a final volume of 10 µL; peptide concentration was fixed at 10 nM. Peptide/protein samples were incubated for 20 minutes at room temperature in the dark and fluorescence polarization (FP) was measured in an Analyst GT multimode reader (Molecular Devices, Sunnyvale, CA) with excitation and emission wavelengths of 530 nm and 555 nm, respectively. Experimental values were output as millipolarization (mP) units and imported into MATLAB (The MathWorks, Inc., Natick, MA) in which equation (1) was used to determine dissociation constants (KDs) for each protein/peptide pairing by least squares nonlinear regression. [drawing 1] (1)
FP was described by the following equation: P=Iparallel-IperpendicularIparallel+Iperpendicular, where “P” denotes polarization, and “I” denotes the fluorescent intensity relative to the plane of incident light. Experimental values were output as millipolarization (mP) units and imported into MATLAB where the following equation was used to determine dissociation constants (KDs) for each protein/peptide pairing by least squares nonlinear regression:
Pobs=Pmax∙ProteinKD+Protein [picture] (1)
Peptides were initially tested for systematic plate effects across protein dilutions and nonspecific binding to thioredoxin by linear regression analysis and any effects were regressed out. The median baseline control polarization value for each plate was then subtracted from each data point to make each binding curve intersect at zero. Plates with excessive variation in baseline control polarizations on both a global and run-specific manner (Dixon’s Q test, p < 0.05) were excluded from further analysis. Outliers in each binding curve were identified and removed using an iterative procedure as follows. The residuals for each fit were used to calculate a global standard deviation of the residuals (GSDR) for each concentration of SH2 domain over all interactions, and individual data points with residuals < or > two GSDR from the global mean residual were flagged as outliers. The outlier with the largest residual from each interaction was removed and nonlinear regression was again performed. This procedure was repeated if additional outliers were identified for an interaction, discarding the interaction if the number of outliers exceeded three. […] In order to further control our false positive rate against hidden confounding variables producing binding artifacts, we sought to determine whether there was a significant relationship between the strength of an interaction and its technical replication rate at our stringent significance and filtering thresholds. We performed logistic regression on the proportion of successful replicates for each interaction query against KD for all interactions (Figure S15A). […] This is related to the observation that the majority of interactions detected by FP are tight (Figure S15B). With this logit model, we assigned a probability to each peptide-protein interaction in our data by using a binomial proportions test to compare the observed versus the expected replication rate at the particular KD of that interaction (Table S4). […]

HSH2D SH2 domain = target: T2, HSH2D SH2 domain (Homo sapiens, UniProt Q96JZ2); test: FP saturation binding assay
T2 sequence (Q96JZ2 34-125 limits assumed): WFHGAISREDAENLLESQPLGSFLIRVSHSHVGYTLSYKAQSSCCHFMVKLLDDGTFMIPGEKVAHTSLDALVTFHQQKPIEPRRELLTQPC

SH2 and PTB domains [1] = target: T3, SH2 and PTB domains (Homo sapiens, UniProt P07947); test: In-house protein microarrays (with or without 5 mM DTT), protein named per line; assay type: binding; settings: protein YES1, array fabrication # 39336
T3 construct: thioredoxin; made in house; host or cells: BL21(DE3)pLysS E. coli
Experimental: (§1) 300 pL of purified recombinant proteins and a thioredoxin tag control were spotted at a concentration of ∼40 µM in duplicate onto aldehyde-coated microscope slides (Erie Scientific Company, Portsmouth, NH) using a Nano-Plotter (NP) 2.1/E noncontact microarrayer (GeSiM, Munich, Germany). 16 identical microarrays per slide were printed in a 2×8 (column by row) format with distances of 9 mm between individual arrays; each array consisted of a 14×14 configuration of spots 400 µm apart. Following printing at a constant humidity level of 50%, slides were desiccated overnight and stored at −80°C. For peptide probing, array slides were transferred to 96-well microplates (TeleChem International, Inc., Sunnyvale, CA) and sandwiched with silicone gaskets. Prior to peptide addition, aldehyde sites were quenched with buffer B (20 mM HEPES, 100 mM KCl, 0.1% Tween-20, 5 mM DTT, pH 7.8) containing 1% bovine serum albumin (BSA) (w/v) for one hour at room temperature; moderate agitation was applied in a plate shaker (IKA, Germany) to displace glycerol from the surface area of protein sample spots. […] The arrays were subsequently washed once with 300 µL of buffer B and once with 300 µL of ddH2O. Residual water was removed by centrifugation; slides were stored under desiccation in the dark until analysis.
(§2) Microarray slides were scanned at a resolution of 10 µm using a GenePix 4000B microarray scanner and analyzed using GenePix Pro v6.0 software (Molecular Devices, Sunnyvale, CA). To independently visualize protein spots irrespective of peptide binding, samples were printed simultaneously with 400 nM of Cyanine-5 (Cy5) labeled bovine serum albumin (BSA). […] Following spot layout identification via Cy5 labeled BSA, the mean fluorescence intensity of rhodamine for duplicate protein spots was quantified and normalized by subtracting the corresponding mean fluorescence intensity of thioredoxin. Normalized fluorescence values were then imported into MATLAB and KDs determined as previously described.

SH2 and PTB domains [2] = target: T4, SH2 and PTB domains (Homo sapiens, UniProt P16885); test: as above; assay type: binding; settings: protein PLCG2-NC, array fabrication # 39336
T4 construct: thioredoxin; made in house; host or cells: BL21(DE3)pLysS E. coli
T4 sequence (P16885 1-1265): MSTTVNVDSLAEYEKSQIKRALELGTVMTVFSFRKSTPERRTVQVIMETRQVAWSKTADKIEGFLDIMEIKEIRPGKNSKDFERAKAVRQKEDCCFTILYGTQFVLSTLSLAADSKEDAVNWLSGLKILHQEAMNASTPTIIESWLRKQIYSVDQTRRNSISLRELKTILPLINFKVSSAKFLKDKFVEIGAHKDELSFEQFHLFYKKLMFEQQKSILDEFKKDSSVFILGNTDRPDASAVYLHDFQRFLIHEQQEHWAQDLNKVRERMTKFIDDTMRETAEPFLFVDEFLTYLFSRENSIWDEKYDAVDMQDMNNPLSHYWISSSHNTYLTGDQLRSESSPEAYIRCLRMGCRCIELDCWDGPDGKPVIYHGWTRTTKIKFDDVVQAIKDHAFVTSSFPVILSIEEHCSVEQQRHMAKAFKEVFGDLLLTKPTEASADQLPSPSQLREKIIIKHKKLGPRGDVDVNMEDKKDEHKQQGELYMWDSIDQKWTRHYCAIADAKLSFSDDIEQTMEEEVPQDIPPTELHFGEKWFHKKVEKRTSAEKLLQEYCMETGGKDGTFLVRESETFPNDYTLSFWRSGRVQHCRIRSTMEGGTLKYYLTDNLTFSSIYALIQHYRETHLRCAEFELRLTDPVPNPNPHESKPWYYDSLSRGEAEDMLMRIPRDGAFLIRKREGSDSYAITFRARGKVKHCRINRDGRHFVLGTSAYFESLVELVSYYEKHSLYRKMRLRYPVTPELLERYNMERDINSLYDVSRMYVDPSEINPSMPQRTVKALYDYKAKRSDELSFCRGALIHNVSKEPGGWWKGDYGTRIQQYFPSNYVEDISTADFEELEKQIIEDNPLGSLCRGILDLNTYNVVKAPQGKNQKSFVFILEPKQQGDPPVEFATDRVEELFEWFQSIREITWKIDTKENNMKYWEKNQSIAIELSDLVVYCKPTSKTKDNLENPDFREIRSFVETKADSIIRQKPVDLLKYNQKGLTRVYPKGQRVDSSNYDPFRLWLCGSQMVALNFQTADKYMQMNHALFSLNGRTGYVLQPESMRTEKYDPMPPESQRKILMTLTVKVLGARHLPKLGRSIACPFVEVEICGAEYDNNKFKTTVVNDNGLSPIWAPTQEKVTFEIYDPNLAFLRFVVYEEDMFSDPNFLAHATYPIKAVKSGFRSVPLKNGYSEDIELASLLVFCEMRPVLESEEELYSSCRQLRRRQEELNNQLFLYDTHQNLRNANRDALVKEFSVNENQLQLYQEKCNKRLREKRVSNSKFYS
Experimental: as §1, §2

SH2 and PTB domains [3] = target: T5, SH2 and PTB domains (Homo sapiens, UniProt P42684); test: as above; assay type: binding; settings: protein ABL2, array fabrication # 39336
T5 construct: thioredoxin; made in house; host or cells: BL21(DE3)pLysS E. coli
Experimental: as §1, §2

SH2 and PTB domains [4] = target: T6, SH2 and PTB domains (Homo sapiens, UniProt P43405); test: as above; assay type: binding; settings: protein SYK-NC, array fabrication # 39336
T6 construct: thioredoxin; made in house; host or cells: BL21(DE3)pLysS E. coli
Experimental: as §1, §2

SH2 and PTB domains [5] = target: T7, SH2 and PTB domains (Homo sapiens, UniProt P51451); test: as above; assay type: binding; settings: protein BLK, array fabrication # 39336
T7 construct: thioredoxin; made in house; host or cells: BL21(DE3)pLysS E. coli
Experimental: as §1, §2

SH2 and PTB domains [6] = target: T8, SH2 and PTB domains (Homo sapiens, UniProt P78314); test: as above; assay type: binding; settings: protein SH3BP2, array fabrication # 39336
T8 construct: thioredoxin; made in house; host or cells: BL21(DE3)pLysS E. coli
T8 sequence (P78314 1-561): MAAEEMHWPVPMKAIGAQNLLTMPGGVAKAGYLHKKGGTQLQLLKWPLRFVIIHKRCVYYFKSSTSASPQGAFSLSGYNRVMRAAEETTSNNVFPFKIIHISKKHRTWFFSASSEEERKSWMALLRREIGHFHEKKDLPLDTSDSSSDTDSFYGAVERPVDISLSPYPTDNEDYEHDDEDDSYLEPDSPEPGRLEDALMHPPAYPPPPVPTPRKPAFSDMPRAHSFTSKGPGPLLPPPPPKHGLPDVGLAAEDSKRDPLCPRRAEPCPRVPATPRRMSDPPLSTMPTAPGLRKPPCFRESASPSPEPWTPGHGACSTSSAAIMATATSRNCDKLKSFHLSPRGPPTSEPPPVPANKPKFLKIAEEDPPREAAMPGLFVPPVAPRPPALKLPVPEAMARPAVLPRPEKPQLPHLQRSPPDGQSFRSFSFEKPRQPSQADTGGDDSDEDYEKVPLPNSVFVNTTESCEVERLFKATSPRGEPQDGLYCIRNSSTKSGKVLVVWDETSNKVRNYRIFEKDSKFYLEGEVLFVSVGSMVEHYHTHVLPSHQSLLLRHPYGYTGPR
Experimental: as §1, §2

T5 sequence (P42684 whole entry, the tested form may be a part): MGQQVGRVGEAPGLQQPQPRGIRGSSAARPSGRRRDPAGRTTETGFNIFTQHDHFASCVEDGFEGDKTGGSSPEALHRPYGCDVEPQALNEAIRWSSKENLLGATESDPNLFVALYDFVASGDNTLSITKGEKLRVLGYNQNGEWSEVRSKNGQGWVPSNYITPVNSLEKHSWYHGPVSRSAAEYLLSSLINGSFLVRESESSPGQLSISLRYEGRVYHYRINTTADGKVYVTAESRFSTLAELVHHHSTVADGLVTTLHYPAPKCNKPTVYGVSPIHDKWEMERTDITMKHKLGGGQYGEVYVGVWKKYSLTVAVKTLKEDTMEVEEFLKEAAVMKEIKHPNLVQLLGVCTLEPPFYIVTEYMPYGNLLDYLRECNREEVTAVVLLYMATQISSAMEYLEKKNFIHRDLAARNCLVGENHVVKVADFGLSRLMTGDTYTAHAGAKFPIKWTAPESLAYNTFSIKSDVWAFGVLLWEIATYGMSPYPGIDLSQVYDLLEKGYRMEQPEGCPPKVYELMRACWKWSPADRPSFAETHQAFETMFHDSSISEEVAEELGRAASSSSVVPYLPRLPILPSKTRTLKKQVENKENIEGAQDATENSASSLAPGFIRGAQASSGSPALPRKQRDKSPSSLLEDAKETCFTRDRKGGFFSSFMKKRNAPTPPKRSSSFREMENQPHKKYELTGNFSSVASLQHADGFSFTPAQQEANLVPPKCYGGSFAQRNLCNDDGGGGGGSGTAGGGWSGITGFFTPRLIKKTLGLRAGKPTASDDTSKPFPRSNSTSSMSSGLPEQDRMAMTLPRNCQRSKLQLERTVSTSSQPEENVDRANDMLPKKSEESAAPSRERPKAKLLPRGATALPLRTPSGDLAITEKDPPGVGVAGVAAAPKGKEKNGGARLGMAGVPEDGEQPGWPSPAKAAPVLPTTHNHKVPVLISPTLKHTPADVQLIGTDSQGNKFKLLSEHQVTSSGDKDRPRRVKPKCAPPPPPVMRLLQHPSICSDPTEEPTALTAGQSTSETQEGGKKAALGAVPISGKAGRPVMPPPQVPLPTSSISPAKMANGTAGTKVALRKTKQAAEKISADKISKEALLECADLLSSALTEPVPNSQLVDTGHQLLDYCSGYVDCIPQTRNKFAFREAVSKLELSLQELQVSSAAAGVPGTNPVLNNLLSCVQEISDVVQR
T3 sequence (P07947 whole entry, the tested form may be a part): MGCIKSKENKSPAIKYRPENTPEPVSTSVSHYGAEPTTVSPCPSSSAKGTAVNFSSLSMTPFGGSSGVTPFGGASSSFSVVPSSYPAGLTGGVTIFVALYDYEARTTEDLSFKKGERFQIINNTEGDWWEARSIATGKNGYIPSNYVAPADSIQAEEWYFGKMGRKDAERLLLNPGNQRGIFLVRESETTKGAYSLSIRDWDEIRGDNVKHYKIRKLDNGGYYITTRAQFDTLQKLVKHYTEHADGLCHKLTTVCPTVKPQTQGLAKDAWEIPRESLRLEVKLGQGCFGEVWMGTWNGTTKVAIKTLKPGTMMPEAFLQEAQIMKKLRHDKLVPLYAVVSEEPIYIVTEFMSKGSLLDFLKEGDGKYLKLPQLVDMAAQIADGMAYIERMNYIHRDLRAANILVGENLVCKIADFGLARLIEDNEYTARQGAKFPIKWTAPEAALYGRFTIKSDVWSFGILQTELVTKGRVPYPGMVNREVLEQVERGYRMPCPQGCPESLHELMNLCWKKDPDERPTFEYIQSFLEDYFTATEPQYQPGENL
T7 sequence (P51451 whole entry, the tested form may be a part): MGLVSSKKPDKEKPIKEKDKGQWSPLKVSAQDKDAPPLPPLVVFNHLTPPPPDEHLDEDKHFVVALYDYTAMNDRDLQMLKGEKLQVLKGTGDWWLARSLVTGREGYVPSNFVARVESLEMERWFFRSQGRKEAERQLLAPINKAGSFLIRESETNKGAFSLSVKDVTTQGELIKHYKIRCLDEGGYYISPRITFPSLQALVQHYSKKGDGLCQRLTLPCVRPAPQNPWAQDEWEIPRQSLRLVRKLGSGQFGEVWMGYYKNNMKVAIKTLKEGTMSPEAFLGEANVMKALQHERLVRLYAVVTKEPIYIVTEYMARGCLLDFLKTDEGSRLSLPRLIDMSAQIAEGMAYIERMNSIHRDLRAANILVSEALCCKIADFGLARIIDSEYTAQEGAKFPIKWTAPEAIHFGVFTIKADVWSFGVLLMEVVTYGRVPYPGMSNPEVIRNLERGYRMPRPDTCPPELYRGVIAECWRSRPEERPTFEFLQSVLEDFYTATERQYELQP
T1 sequence (Q13882 78-170 limits assumed): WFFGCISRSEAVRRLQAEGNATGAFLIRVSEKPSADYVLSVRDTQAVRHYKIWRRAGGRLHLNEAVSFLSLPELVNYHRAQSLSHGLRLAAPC

SMILES | Kd (PTK6 SH2 domain) [nM] | Kd (HSH2D SH2 domain) [nM] | Kd (SH2 and PTB domains [1]; PM assay replicate # 39341) [nM] | Kd (SH2 and PTB domains [1]; PM assay replicate # 39342) [nM] | Kd (SH2 and PTB domains [2]; PM assay replicate # 39341) [nM] | Kd (SH2 and PTB domains [2]; PM assay replicate # 39342) [nM] | Kd (SH2 and PTB domains [3]; PM assay replicate # 39341) [nM] | Kd (SH2 and PTB domains [3]; PM assay replicate # 39342) [nM] | Kd (SH2 and PTB domains [4]; PM assay replicate # 39341) [nM] | Kd (SH2 and PTB domains [4]; PM assay replicate # 39342) [nM] | Kd (SH2 and PTB domains [5]; PM assay replicate # 39341) [nM] | Kd (SH2 and PTB domains [5]; PM assay replicate # 39342) [nM] | Kd (SH2 and PTB domains [6]; PM assay replicate # 39341) [nM] | Kd (SH2 and PTB domains [6]; PM assay replicate # 39342) [nM]
C[C@H](NC(=O)[C@H](CC(N)=O)NC(=O)[C@H](Cc1c[nH]cn1)NC(=O)[C@H](Cc1ccc(OP(=O)(O)O)cc1)NC(=O)[C@H](CCC(=O)O)NC(=O)[C@@H]1CCCN1C(=O)[C@H](CC(N)=O)NC(=O)[C@@H](N)CC(=O)O)C(=O)N[C@@H](CO)C(=O)N[C@@H](CC(N)=O)C(=O)NCC(=O)N1CCC[C@H]1C(=O)N[C@@H](CC(=O)O)C(=O)O [ErbB4 1188 13-mer] (HELM PEPTIDE1{D.N.P.E.[O=C([C@H](Cc1ccc(OP(=O)(O)O)cc1)N[*:1])[*:2]].H.N.A.S.N.G.P.D}$$$$V2.0) | 9420 | 3050 |  |  |  |  |  |  |  |  |  |  |  | 
CC(C)C[C@H](NC(=O)[C@@H](NC(=O)[C@@H](NC(=O)CNC(=O)[C@@H]1CCCN1)[C@@H](C)O)C(C)C)C(=O)N1CCC[C@H]1C(=O)N1CCC[C@H]1C(=O)N1CCC[C@H]1C(=O)N1CCC[C@H]1C(=O)N[C@@H](Cc1ccc(OP(=O)(O)O)cc1)C(=O)N[C@@H](CCCNC(=N)N)C(=O)N[C@@H](Cc1c[nH]cn1)C(=O)N[C@@H](CCCNC(=N)N)C(=O)N[C@@H](CC(N)=O)C(=O)N[C@H](C(=O)N[C@H](C(=O)N[C@H](C(=O)N[C@@H](CC(=O)O)C(=O)O)C(C)C)C(C)C)[C@@H](C)O [ErbB4 pY1301 (18-mer)] (HELM PEPTIDE1{P.G.T.V.L.P.P.P.P.[O=C([C@H](Cc1ccc(OP(=O)(O)O)cc1)N[*:1])[*:2]].R.H.R.N.T.V.V.D}$$$$V2.0) |  |  | 1370 | 4860 | 810 | 8370 | 1030 | 0.68 | 800 | 1170 | 1180 | 1600 | 1180 | 1610
